Read-outs that look alike come from different tables or passages of the source.
Legend:
[1] = test system: HepG2 cells; test: Cytotoxicity in HepG2 cells (intracellular ATP, ATPlite, 48 h); assay type: cell-based, human; conditions: IC50 HepG2 divided by IC50 P. falciparum gametocytes
[2] = as above; assay type: cell-based, human; conditions: human, HepG2 cells
[3] = test system: luciferase reaction (BacTiter-Glo); test: Interference assay (inhibition of the BacTiter-Glo luciferase reaction); assay type: biochemical; set-up: concentration or dose not given beside the values; conditions: ATP interference assay
Method: To discard possible false-positive results, we performed an interference assay in parallel. […] […]. The ATP solution was made by dissolving ATP powder (ATP standard from the ATPlite 1 step assay kit, reference 6016731, Perkin Elmer) in culture medium. The positive control used was the Luciferase Inhibitor I Calbiochem (Merck, 119113) at 100 μM.

[4] = test system: P. falciparum asexual stages; conditions: TCAMS data, cited from earlier work
[5] = test system: P. falciparum stage V gametocytes; test: Gametocytocidal ATP bioluminescence assay (single point 5 μM and 1 μM, dose-response); assay type: cell-based, Plasmodium falciparum; conditions: for Ratio IC50 HepG2/IC50 P. falciparum: IC50 HepG2 divided by IC50 P. falciparum gametocytes
Method: Purified stage IV-V gametocytes were obtained as previously described [10]. Single point ATP bioluminescence assay and dose–response of positive hits was determined in accordance with the previously published protocol [10].

[6] = HepG2, 48 h exposure, intracellular ATP, read-out: IC50 (μM) Cytotoxicity HepG2
[7] = IC50 per ratio column head, unit inferred, read-out: Cytotoxicity in HepG2
[8] = P. falciparum asexual stages, read-out: IC50 (µM) Pf asexual stages
[9] = asexual stages, read-out: IC50 asexual
[10] = Plasmodium falciparum, P. falciparum gametocytes, average, read-out: IC50 Pf Gametocytes average, IC50 (µM) average
[11] = sexual stages (gametocytes), dose-response, read-out: IC50 sexual
[12] = Plasmodium falciparum, sexual stages (gametocytes), dose-response, read-out: IC50 sexual

SMILES	Ratio IC50 HepG2/IC50 P. falciparum [1]	IC50 at 48 h [2, 6]	IC50 at 48 h [2, 7]	% Control luminiscence [3]	IC50 [4, 8]	IC50 [4, 9]	Ratio IC50 HepG2/IC50 P. falciparum [5]	IC50 [5, 10]	IC50 [5, 11]	IC50 ([5]; Plasmodium falciparum, gametocytes (S9 Table), read-out: pIC50game (converted))	inhibition at 5 µM ([5]; Plasmodium falciparum, gametocytes, primary screen at 5 μM (S9 Table, CSA analogs))	IC50 [5, 12]	IC50 ([2]; IC50 per ratio column head, unit inferred)	IC50 ([5]; Plasmodium falciparum, read-out: IC50 Pf Gametocytes average, IC50 (µM) average)	%_Inh ([5]; gametocytes, primary screen at 5 μM (S10 Table, MCSI analogs))
COc1ccc(COc2cc(NCCCN)nc3ccccc23)cc1 [TCMDC-139286]	25	14 µM	14 µM	100%	1.28 µM	1.28 µM	25	0.56 µM	–	–	–	–	–	–	–
COc1ccc2nc(-c3ccccc3)cc(NCCCNc3cc(-c4ccccc4)nc4ccc(OC)cc34)c2c1.Cl [TCMDC-137734]	–	–	5.5 µM	100%	–	0.122 µM	4.53	1.21 µM	1.21 µM	–	–	–	–	–	–
COc1ccc(CNC(=O)c2cnc3c(O)cccc3c2Nc2cccc(NC(=O)c3ccc(Cl)c(Cl)c3)c2)cc1.O=C(O)C(F)(F)F [TCMDC-139607]	–	–	< 1.56 µM	100%	–	0.604 µM	<2.3	0.68 µM	–	–	–	–	–	–	–
COc1cc2nc(N3CCN(c4nc(N)c5cc(OC)c(OC)cc5n4)CC3)nc(N)c2cc1OC [TCMDC-123865]	>96	–	> 25 µM	100%	0.15 µM	0.146 µM	>96	0.26 µM	–	–	–	–	–	–	–
Fc1ccc2[nH]c(-c3ccc(-c4ccc(CNCCN5CCNCC5)cc4)s3)nc2c1 [TCMDC-132869]	>47	–	> 25 µM	100%	0.78 µM	0.779 µM	>47	0.53 µM	–	0.53 µM	101%	–	–	–	–
CN(C)CCCNc1nccc(N(C)c2ccc(NC(=O)Nc3cc(C(F)(F)F)ccc3F)cc2)n1 [TCMDC-141633]	17	–	17.3 µM	100%	–	0.98 µM	17	1 µM	0.997 µM	–	–	–	–	–	–
S=C(NN=Cc1ccccn1)Nc1ccc2c(c1)OCCO2 [TCMDC-132009]	–	–	3.28 µM	100%	–	1.05 µM	4	0.83 µM	–	–	–	–	–	–	–
NC1CCN(Cc2ccc(-c3ccc(-c4nc5cc(F)ccc5[nH]4)cc3)cc2)C1 (centres unmarked) [TCMDC-133872]	–	7 µM	7.25 µM	100%	0.18 µM	0.184 µM	9	0.83 µM	–	–	–	0.827 µM	–	–	–
COc1ccc(-c2cnc3[nH]cc(-c4ccncc4)c3c2)cc1OC [TCMDC-135853]	–	–	3.1 µM	92%	–	0.126 µM	3.46	0.9 µM	0.897 µM	–	–	–	–	–	–
CCOc1ccc(-c2nonc2NC(=O)c2cccc(Cl)c2)cc1OCC [TCMDC-125200]	–	–	> 25 µM	100%	0.15 µM	0.147 µM	–	0.84 µM	–	–	–	–	–	–	–
COc1cc2nc(N3CCN(C(=O)c4c(Cl)nsc4-c4ccccc4Cl)CC3)nc(N)c2cc1OC.O=C(O)C(F)(F)F [TCMDC-138186]	–	–	8.18 µM	100%	–	0.534 µM	38	0.22 µM	0.215 µM	–	–	–	–	–	–
COc1cc(-c2cc(-c3ccc(S(C)(=O)=O)cc3)cnc2N)ccc1O [TCMDC-133343]	–	–	> 25 µM	100%	0.1 µM	0.101 µM	–	1.24 µM	–	–	–	1.24 µM	–	–	–
CN1CCN(CCCCNc2c3ccccc3nc3ccccc23)CC1 [TCMDC-137479]	–	–	3.39 µM	100%	–	0.704 µM	2.57	1.32 µM	1.32 µM	–	–	–	–	–	–
N=C(NCC1CC1c1ccccc1)c1cccc(C(=N)NCC2CC2c2ccccc2)n1 (centres unmarked) [TCMDC-137456]	–	–	6.8 µM	100%	–	1.76 µM	15	0.45 µM	–	–	–	–	–	–	–
FC(F)c1nc2ccccc2n1-c1nc(N2CCOCC2)nc(N2CCOCC2)n1 [TCMDC-137004]	–	–	1.58 µM	98%	–	0.761 µM	0.291	5.44 µM	5.44 µM	–	–	–	–	–	–
COc1cc2nc(N3CCC(CNC(=O)c4ccc(-c5ccc(-c6noc(C)n6)cc5)cc4)CC3)nc(N)c2cc1OC [TCMDC-138754]	–	–	4.33 µM	97%	–	0.139 µM	39	0.11 µM	–	–	–	–	–	–	–

SMILES	Ratio IC50 HepG2/IC50 P. falciparum [1]	IC50 at 48 h [2, 6]	IC50 at 48 h [2, 7]	% Control luminiscence [3]	IC50 [4, 8]	IC50 [4, 9]	Ratio IC50 HepG2/IC50 P. falciparum [5]	IC50 [5, 10]	IC50 [5, 11]	IC50 ([5]; Plasmodium falciparum, gametocytes (S9 Table), read-out: pIC50game (converted))	inhibition at 5 µM ([5]; Plasmodium falciparum, gametocytes, primary screen at 5 μM (S9 Table, CSA analogs))	IC50 [5, 12]	IC50 ([2]; IC50 per ratio column head, unit inferred)	IC50 ([5]; Plasmodium falciparum, read-out: IC50 Pf Gametocytes average, IC50 (µM) average)	%_Inh ([5]; gametocytes, primary screen at 5 μM (S10 Table, MCSI analogs))
FC(F)(F)c1ccc2[nH]c(-c3ccc(-c4cccc(CN5CCC(CCN6CCCCC6)CC5)c4)cc3)nc2c1 [TCMDC-133941]	–	–	3.4 µM	100%	–	0.153 µM	6.67	0.51 µM	–	–	–	–	–	–	–
COc1cc(NCC(C)CNCc2cn(Cc3ccccc3)c3ccccc23)nc2ccccc12 (centres unmarked) [TCMDC-140496]	–	–	5 µM	100%	–	0.633 µM	3	1.71 µM	–	–	–	–	–	–	–
COc1ccc(C[C@H](N)C(=O)N[C@H]2[C@@H](O)[C@H](n3cnc4c(N(C)C)ncnc43)O[C@@H]2CO)cc1 [TCMDC-123493]	–	–	2.95 µM	100%	–	0.174 µM	5	0.56 µM	0.563 µM	–	–	–	–	–	–
Fc1ccc2[nH]c(-c3ccc(-c4ccc(CN5CCC(CCN6CCCCC6)CC5)cc4)s3)nc2c1 [TCMDC-133932]	–	–	3.79 µM	100%	–	0.142 µM	27	0.14 µM	–	–	–	–	–	–	–
Cc1cccc2nc(-c3ccc(-c4ccc(CN5CCC(CCN6CCCCC6)CC5)cc4)cc3)[nH]c12 [TCMDC-133929]	–	–	3.7 µM	100%	–	0.144 µM	14	0.27 µM	0.267 µM	–	–	–	–	–	–
Cl.c1ccc2c(NCCCCCCNc3c4ccccc4nc4ccccc34)c3ccccc3nc2c1 [TCMDC-124285]	–	–	–	100%	–	0.753 µM	28	–	0.247 µM	–	–	–	7 µM	0.25 µM	–
CC(C)CCNC(=O)c1cnc2c(O)cccc2c1Nc1cccc(NC(=O)c2ccc(F)cc2)c1.O=C(O)C(F)(F)F [TCMDC-139606]	–	–	5.27 µM	98%	–	0.913 µM	4	1.27 µM	–	–	–	–	–	–	–
[O-][s+]1c(Cl)c(-c2ccc(Cl)cc2)c2ccc(Cl)cc21 (centres unmarked) [TCMDC-124011]	–	–	12.8 µM	100%	–	0.993 µM	–	0.02 µM	–	–	–	–	–	–	–
Cc1cccc2nc(-c3cccc(-c4cccc(CNCCN5CCNCC5)c4)c3)[nH]c12 [TCMDC-132873]	–	–	7.76 µM	100%	–	0.97 µM	16	0.5 µM	0.497 µM	–	–	–	–	–	–
Cc1cccnc1Nc1nc(-c2ccccn2)cs1 [TCMDC-125846]	–	–	3.02 µM	100%	–	0.687 µM	30	0.1 µM	–	–	–	–	–	–	–
Cc1cccc2nc(-c3ccc(-c4cccc(CN5CCC(CCN6CCCCC6)CC5)c4)s3)[nH]c12.O=C(O)C(F)(F)F [TCMDC-133923]	–	–	3.87 µM	100%	–	0.14 µM	8	0.46 µM	–	–	–	0.463 µM	–	–	107.301%
CC[C@H]1CN2CCc3cc(OC)c(OC)cc3[C@@H]2C[C@@H]1C[C@H]1NCCc2cc(OC)c(OC)cc21 [TCMDC-125531]	–	21 µM	21 µM	95%	0.21 µM	0.214 µM	–	0.35 µM	–	–	–	0.347 µM	–	–	–
COc1cc2nc(N3CCC(CNCc4ccc(-c5ccc(C(F)(F)F)cc5)cc4)CC3)nc(N)c2cc1OC [TCMDC-138757]	–	–	< 1.56 µM	100%	–	0.087 µM	<88	0.0177 µM	0.018 µM	–	–	–	–	–	–
Fc1ccc2[nH]c(-c3cccc(-c4ccc(CN5CCC(CCN6CCCCC6)CC5)cc4)c3)nc2c1 [TCMDC-133940]	–	–	5.2 µM	100%	–	0.142 µM	12	0.43 µM	0.433 µM	–	–	–	–	–	–
CCc1ccc(CN2CCC(CNC(=O)c3cc(-c4cccc(F)c4)cs3)C2)cc1 (centres unmarked) [TCMDC-134432]	–	–	7.22 µM	100%	–	1.36 µM	6	1.26 µM	1.26 µM	–	–	–	–	–	–

From article PMC4552634, “A New Set of Chemical Starting Points with Plasmodium falciparum Transmission-Blocking Potential for Antimalarial Drug Discovery” (PLoS ONE, 2015)
